Laboratory results reported in paper PMC4581228, “Membrane Affinity of Platensimycin and Its Dialkylamine Analogs” (International Journal of Molecular Sciences, 2015).

Tested on: Bacillus subtilis
Test: Minimal inhibitory concentration with cultures of Bacillus subtilis
Assay type: cell-based
Conditions: in experiments; organism not given
Excerpt: Principally, the efficacy of a drug depends on permeability (first selection), the degree of inhibition of the biological target, rates of drug efflux, drug breakdown, off target binding, and sequestration. In the case of platensimycin, the biological target is FabF. […] Details of docked conformations are presented in the Supplementary Figure S2A,B. Platensimycin and QD-11 show the same estimated binding affinity to FabF (C163Q) (PDB ID: 2GFX) and both are potent antibiotics. […] More specifically, platensimycin and myrtemycin were active against Gram-positive bacteria (S. aureus, MRSA; E. faecium, VRE and B. subtilis) and also Gram-negative bacteria, E. coli (but only when co-adminsitered with Phe-Arg-β-naphthylamide dihydrochloride, PAβND, which is a bacterial efflux pump inhibitor) as described in [18]. For the purpose of comparison with the computational docking predictions, here we present data for B. subtilis.
The bottom row in Table 1 presents minimal inhibitory concentrations (MIC) for all of the substances assayed with gram-positive and gram-negative bacteria. […] Despite the fact that the heterocyclic G271 partitioned into the membrane very well, and can be docked well into FabF, it had virtually no antimicrobial activity.

| SMILES | Biological / antibiotic activity |
| --- | --- |
| Cn1ccnc1CN(CCC(=O)Nc1c(O)ccc(C(=O)O)c1O)Cc1nccn1C [G262] | essentially no biological activity |
| O=C(CCN(Cc1cccnc1)Cc1cccnc1)Nc1c(O)ccc(C(=O)O)c1O [G258] | essentially no biological activity |
| O=C(CCN(Cc1ccc2c(c1)OCO2)Cc1ccc2c(c1)OCO2)Nc1c(O)ccc(C(=O)O)c1O [G271] | no antibiotic activity |

Tested on: Bacillus subtilis
Test: not given
Conditions: cultures of Bacillus subtilis; ref 22 (table title); cited from earlier work

| SMILES | MIC for B. subtilis |
| --- | --- |
| Cn1ccnc1CN(CCC(=O)Nc1c(O)ccc(C(=O)O)c1O)Cc1nccn1C [G262] | >512 µg/mL |
| O=C(CCN(Cc1cccnc1)Cc1cccnc1)Nc1c(O)ccc(C(=O)O)c1O [G258] | >512 µg/mL |
| O=C(CCN(Cc1ccc2c(c1)OCO2)Cc1ccc2c(c1)OCO2)Nc1c(O)ccc(C(=O)O)c1O [G271] | >512 µg/mL |

Tested on: A98S MscS in the cytoplasmic membrane of E. coli
Test: Patch-clamp of A98S MscS in excised spheroplast patches (activation midpoint shift)
Conditions: within the observation time, Supplementary Figure S4
Procedure: A pB10b vector was used to house and express the mscS gene in the triple-knockout E. coli strain MJF465 (mscS^−, mscL^−, mscK^−). The A98S MscS mutant, generated and partially characterized previously, was chosen for its higher sensitivity to inner leaflet drug partitioning.
Spheroplasts were generated as described previously. The experimental bath solution contained 400 mM sucrose, 200 mM KCl, 50 mM MgCl2, 5 mM CaCl2, and 5 mM HEPES and was titrated to pH 7.4 with KOH. Membrane patches were obtained on borosilicate glass pipettes and recorded at 30 mV pipette voltage set by a microelectrode amplifier. The midpoint of activation for channels in each patch was determined at two-minute intervals for the duration of the experiment via a 1 s ramp of saturating pressure. Analogs of platensimycin were pre-diluted in either ethanol or bath solution and perfused into the bath to achieve the desired concentration; control injections of equivalent volumes of ethanol had no effect on the midpoint of activation. Negative pressure (suction) was applied with the HSPC-1 high speed pressure clamp apparatus from ALA Scientific. Programming of the pressure protocols and data analysis was performed with the PClamp10 suite (Axon Instr., Foster City, CA, USA). The principle of lateral pressure measurements using two experimental systems, lipid monolayers and patch-clamp, is illustrated in Figure 1.
Similarly, the bulk-membrane partitioning coefficient (Kmem) was estimated from the values of relative increase in MscS activation pressure midpoint (p0.5) measured in patch-clamp experiments at different concentrations of intercalating agents by linear fit of Δp0.5 as a function of log(Cd).

| SMILES | Redistribution / return of activation midpoint |
| --- | --- |
| Cn1ccnc1CN(CCC(=O)Nc1c(O)ccc(C(=O)O)c1O)Cc1nccn1C [G262] | did not return back |
| O=C(CCN(Cc1cccnc1)Cc1cccnc1)Nc1c(O)ccc(C(=O)O)c1O [G258] | relatively fast |
| O=C(CCN(Cc1ccc2c(c1)OCO2)Cc1ccc2c(c1)OCO2)Nc1c(O)ccc(C(=O)O)c1O [G271] | did not return back |

Same assay, conditions: x-intercept of midpoint shift (∆p0.5) vs. concentration, native E. coli membrane, cytoplasmic side

| SMILES | log Kmem (patch-clamp) |
| --- | --- |
| O=C(CCN(Cc1ccc2c(c1)OCO2)Cc1ccc2c(c1)OCO2)Nc1c(O)ccc(C(=O)O)c1O [G271] | 6.1 |

Tested on: not listed separately
Test: Tensiometry at the air-water interface (Wilhelmy method)
Assay type: physicochemical
Conditions: air-water partitioning coefficient, tensiometry, buffer pH 7.4
Procedure: Surface tensions of subphase solutions with varying concentrations of platensimycin analogs were quantified using the Wilhelmy method with a piece of filter paper (Whatman, No. 1, 10.5 mm wide and 0.25 mm thick) used as a probe. The subphase buffer consisted of 200 mM KCl, 10 mM MgCl2, 5 mM CaCl2, 5 mM HEPES (Sigma-Aldrich, St. Louis, MO, USA) titrated to a pH of 7.4 with KOH. The pressure sensor (model 601, NIMA, Coventry, UK) was calibrated using a 100 mg weight. Water surface tension was measured to be […], after calibration. […] The surface activity and values for molecular area at the surface of the air-water interface (As), the partition coefficient at the air-water interface of the surface active molecule (KAW), and the membrane partitioning coefficient (Kmem), were determined as described previously.
The analysis of interfacial adsorption data was performed in the general framework of the Gibbs equation (1) dπ=∑Γidμi where dπ represents a small change in surface pressure, Γi is surface excess of component i and dμi is the small change of chemical potential of that component in the aqueous phase. For one adsorbing component, in an ideal case the Gibbs isotherm takes the form (2) dπ=RTΓd ln C where surface excess is defined as the surface density of molecules Γ = 1/(NAaS), NA is Avogadro’s number and aS is the area requirement for the molecule at the surface. The adsorbing substance gradually saturates the surface; the process that can be approximated by a Langmuir isotherm: (3) Γ=Γ∞lnKAW⋅C/1+KAW⋅C
Thus, beyond a certain bulk concentration, Γ approaches a constant value of Γ∞ and in that range of concentrations a linear relationship holds: (4) Γ∞=(1/RT)dπ/d ln C
To evaluate the partition coefficient for an air-water interface (KAW) and monolayers (Klip), the integral form of this equation attributed to Szyszkowski and previously applied to monolayers by Seelig and coworkers was used: (5) π=RTΓ∞ln(KAWC+1)
As was shown in Suomolainen 2004 [5], the x-intercept of the fitting line of experimental π-lnC curve would approximate the inverse partitioning coefficient 1/KAW, measured at the air-water interface.

| SMILES | log KAW (tens.) |
| --- | --- |
| Cn1ccnc1CN(CCC(=O)Nc1c(O)ccc(C(=O)O)c1O)Cc1nccn1C [G262] | 4.2 |
| O=C(CCN(Cc1cccnc1)Cc1cccnc1)Nc1c(O)ccc(C(=O)O)c1O [G258] | 4.2 |
| O=C(CCN(Cc1ccc2c(c1)OCO2)Cc1ccc2c(c1)OCO2)Nc1c(O)ccc(C(=O)O)c1O [G271] | 4.5 |

Same assay, conditions: detected only at this concentration

| SMILES | Concentration at which changes of surface tension were detected |
| --- | --- |
| Cn1ccnc1CN(CCC(=O)Nc1c(O)ccc(C(=O)O)c1O)Cc1nccn1C [G262] | 10^−4 M |
| O=C(CCN(Cc1cccnc1)Cc1cccnc1)Nc1c(O)ccc(C(=O)O)c1O [G258] | 10^−4 M |

Tested on: not listed separately
Test: Langmuir monolayer pressure-area isotherms
Assay type: physicochemical, E. coli
Conditions: E. coli polar lipid monolayer, 20 mN/m, pH 7.4, ~20 °C
Procedure: All Langmuir monolayer experiments were done with a two-barrier rectangular 22 cm × 6 cm trough (MicroTrough XS, Kibron Inc., Helsinki, Finland) placed in an Airclean hood. A Dyneprobe metal alloy needle was used as the Wilhelmy plate. Lipids used were E. coli total polar lipid extract from Avanti Polar Lipids (Alabaster, AL, USA) dissolved in chloroform or hexane to a final concentration of 0.2 mg/mL. Distribution of lipids onto the subphase was accomplished using a gastight 50 µL Hamilton® syringe (Hamilton, Reno, NV, USA). The subphase buffer was identical to the tensiometry buffer. Pressure—Area isotherms (monolayers) were performed at room temperature (~20 °C) from 114 to 18 cm^2 at a barrier rate of 20 mm/min. For each analog, isotherms were measured at least four times at every concentration.
In Langmuir experiments, the value of the bulk-monolayer (Klip) partitioning coefficient was determined in a similar way, using the deviations of surface pressure of monolayers measured at constant area. […] However, at this compression, strongly intercalating substances produced pressure shifts beyond the collapse pressure of 45–47 mN/m, which forced us to score Δπ from surface pressure of 20 mN/m achieved at ~80 Å^2/molecule. Klip1 obtained in this expanded state was than corrected for the lateral pressure increase from π1 = 20 to π2 = 35 mN/m, which has the same form as Equation (7) in [5]: (6) ln(Klip2)=ln(Klip1)−(π2−π1)adNA/RT
Here ad is the area taken by the drug in the plane of the monolayer.
To estimate ad we assumed equilibrium between the drug in the subphase and in the monolayer and equated its chemical potentials in the two phases: (7) μ0+RTln(χd)=μ0σ+RTln(χdσ)+π⋅adNA
The right part with indexes σ represents the surface parameters of standard chemical potential µ0σ and drug mole fraction χdσ , whereas the left part represents the bulk parameters. Defining lnKlip = µ0σ −µ0 one can rearrange this equation as (8) lnKlip−lnχdσ−lnχd=π⋅adNA/RT
Differentiating with respect to π gives (9) −RTd(lnχdσ)/NAdπ=ad
Thus the molecular area of the drug defines the slope of χdσ , with which the drug re-partitions back to the subphase as surface pressure π increases. We further assume that at a given surface pressure, insertion of nd drug molecules into the film comprised of nL lipid molecules with initial area A0, should dilate the film by ΔA. (10) nd/nL=ΔA/A0⋅aL/ad
The parameter aL, the area per lipid at that particular pressure, is taken from the control pressure-area isotherm with no drug. The mole fraction of the drug in the monolayer χdσ = nd/(nd + nL) is related to the extent of monolayer dilation ΔA (11) ΔA=ad⋅nd=adnL⋅χdσ/1−χdσ
On the assumption that χdσ is small, ΔA is proportional to the mole fraction of the drug. In Equation (4) we substitute and obtain (12) −kTd(lnΔA)/dπ=ad
Thus, the molecular area of the drug can be determined from the logarithmic slope of ΔA on surface pressure. Once we know ad, we can introduce a correction to Klip due to lateral pressure change ([…]). In addition, we can estimate the molar ratio of drug-to-lipid, the mole fraction χdσ and the partitioning constant. From the extent of monolayer dilation at a constant surface pressure (chosen to be 20 mN/m), the apparent bulk-monolayer partitioning coefficient Klip could be independently estimated as Klip=χdσ/χd , where […] = Cd/55 represents the drug mole fraction in the subphase.

| SMILES | log Klip @ 20 mN/m, Measured |
| --- | --- |
| Cn1ccnc1CN(CCC(=O)Nc1c(O)ccc(C(=O)O)c1O)Cc1nccn1C [G262] | 5.9 |
| O=C(CCN(Cc1cccnc1)Cc1cccnc1)Nc1c(O)ccc(C(=O)O)c1O [G258] | 5.9 |
| O=C(CCN(Cc1ccc2c(c1)OCO2)Cc1ccc2c(c1)OCO2)Nc1c(O)ccc(C(=O)O)c1O [G271] | 6.1 |

Same assay, conditions: area taken by the drug in the monolayer, from slopes of log(ΔArea) vs. surface pressure

| SMILES | Effective Molec. Area (ad) |
| --- | --- |
| Cn1ccnc1CN(CCC(=O)Nc1c(O)ccc(C(=O)O)c1O)Cc1nccn1C [G262] | 17 Å^2 |
| O=C(CCN(Cc1cccnc1)Cc1cccnc1)Nc1c(O)ccc(C(=O)O)c1O [G258] | 18 Å^2 |
| O=C(CCN(Cc1ccc2c(c1)OCO2)Cc1ccc2c(c1)OCO2)Nc1c(O)ccc(C(=O)O)c1O [G271] | 18 Å^2 |

Same assay, conditions: corrected to the monolayer-bilayer equivalence pressure 35 mN/m (Equation 6)

| SMILES | log Klip @ 35 mN/m, Corrected |
| --- | --- |
| Cn1ccnc1CN(CCC(=O)Nc1c(O)ccc(C(=O)O)c1O)Cc1nccn1C [G262] | 5.6 |
| O=C(CCN(Cc1cccnc1)Cc1cccnc1)Nc1c(O)ccc(C(=O)O)c1O [G258] | 5.6 |
| O=C(CCN(Cc1ccc2c(c1)OCO2)Cc1ccc2c(c1)OCO2)Nc1c(O)ccc(C(=O)O)c1O [G271] | 5.8 |
